{"source": "paper PMC3996151", "about": "“Safety and pharmacological characterization of the molecular tweezer CLR01 – a broad-spectrum inhibitor of amyloid proteins’ toxicity” (BMC Pharmacology & Toxicology, 2014)", "key": {"[1]": {"molecular_target": "T1, calf intestinal alkaline phosphatase (Bos taurus, UniProt P19111)", "T1 construct": "purchased Promega, Madison, Wisconsin", "T1 sequence (P19111 20-533)": "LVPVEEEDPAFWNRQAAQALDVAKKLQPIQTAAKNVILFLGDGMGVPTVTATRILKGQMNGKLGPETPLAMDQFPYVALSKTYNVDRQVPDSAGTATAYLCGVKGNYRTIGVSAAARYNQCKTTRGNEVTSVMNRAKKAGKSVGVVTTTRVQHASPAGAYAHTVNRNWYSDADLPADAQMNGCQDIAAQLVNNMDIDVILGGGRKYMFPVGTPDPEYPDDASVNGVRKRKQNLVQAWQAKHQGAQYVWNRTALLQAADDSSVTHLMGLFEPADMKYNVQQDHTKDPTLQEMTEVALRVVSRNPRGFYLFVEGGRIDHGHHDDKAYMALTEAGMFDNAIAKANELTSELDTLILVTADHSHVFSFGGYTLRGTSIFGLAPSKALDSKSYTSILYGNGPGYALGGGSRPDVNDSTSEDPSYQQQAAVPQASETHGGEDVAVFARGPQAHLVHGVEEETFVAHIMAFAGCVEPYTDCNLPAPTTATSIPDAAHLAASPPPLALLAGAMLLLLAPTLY", "assay": "In vitro dephosphorylation by alkaline phosphatase (inorganic phosphate release)", "type": "in vitro ADME", "settings": "up to 100 nmol CLR01, 60 min at 60°C, detection limit 5 nmol", "experimental": "Potential dephosphorylation of CLR01 was analyzed by incubating 100 nmol CLR01 with 0.08 units of alkaline phosphatase (ALP; calf intestinal alkaline phosphatase, Promega, Madison, Wisconsin) for 60 min at 60°C. One enzymatic unit is defined as the amount of enzyme required for catalyzing the hydrolysis of 1 μmol of p-nitrophenylphosphate per minute. p-Nitrophenylphosphate disodium salt at 5–50 nmol (Fisher, Waltham, Massachusetts) was used for generation of a standard curve. The amount of inorganic phosphate generated was measured spectrophotometrically using an EnzChek Phosphate Assay kit (Life Technologies, Carlsbad, California) according to the manufacturer’s instructions on a DU-640 spectrophotometer (Beckman Coulter, Brea, California) at λ = 360 nm. Baseline values were subtracted from readings and compared to the standard curve resulting from serial ALP reactions to calculate the amount of inorganic phosphate. Similarly, potential dephosphorylation of CLR01 by brain homogenates was measured. For these experiments, one brain hemisphere was homogenized by sonication in the presence of cOmplete protease-inhibitor cocktail (Roche, Penzberg, Germany). Protein concentration was measured using a BCA Protein Assay Kit (Pierce, Rockford, Illinois). […]"}, "[2]": {"assay": "Blood-brain barrier permeability with 3H-CLR01 IV (scintillation counting of blood and brain)", "type": "in vivo, mouse", "settings": "40-μg/kg/day dose, 15-m old 3×Tg mice, estimate"}, "[3]": {"set-up": "method as in PMID 18605724, PMID 23750919", "settings": "cited from earlier work"}, "primary neurons": {"system": "primary neurons", "set-up": "method as in PMID 23183235", "settings": "cited from earlier work"}}}
{"molecule": "O=P(O)(O)Oc1c2c(c(OP(=O)(O)O)c3c1C1CC3c3cc4c(cc31)C1CC4c3ccccc31)C1CC2c2cc3c(cc21)C1CC3c2ccccc21", "note": "[CLR01]", "values": [{"measurement": "Inorganic phosphate released on incubation with ALP", "setting": "[1]", "result": "undetectable levels of inorganic phosphate"}, {"measurement": "Estimated amount of CLR01 entering the brain per day", "setting": "[2]", "result": "~ 200 fmol"}, {"measurement": "Affinity for Arg relative to Lys, fold lower", "setting": "[3]", "result": "~ 10 fold"}, {"measurement": "Protection of primary neurons from Aβ-induced effects", "setting": "primary neurons", "result": "protected primary neurons from Aβ-induced decrease in synaptic spine density, basal synaptic activity, and long-term potentiation"}]}
